Experimental data from ChEMBL document CHEMBL4610112, “Novel Pyrrolopyridone Bromodomain and Extra-Terminal Motif (BET) Inhibitors Effective in Endocrine-Resistant ER+ Breast Cancer with Acquired Resistance to Fulvestrant and Palbociclib” (J Med Chem, 2020).

Assay: Induction of thrombocytopenia in rat assessed as platelet count […] at 3 mg/kg, po administered daily for 10 days (reference value: […])
Assay type: organism-based
Settings: in vivo, 240 h

For CCS(=O)(=O)Nc1ccc(Oc2ccc(F)cc2F)c(-c2cn(C)c(=O)c3[nH]ccc23)c1 [MIVEBRESIB], the platelet count was 173 10^3/µL.
